Earlier results in patent US8492081B2, “Aldehyde-fixed, dried platelets with covalently attached exogenous active agent and method of making thereof” (The University of North Carolina at Chapel Hill, priority 2003, dated 2013).

Columns and labels:
[1] = system: Punta Toro virus; settings: free ribavirin, not loaded on platelets; previously shown
[2] = Crotty et al., 2002

SMILES: NC(=O)c1ncn([C@@H]2O[C@H](CO)[C@@H](O)[C@H]2O)n1 [ribavirin]
- concentration range shown to inhibit Punta Toro virus replication in vitro [1]: 4-10 micrograms per ml
- concentration range that exhibits antiviral activity in tissue culture [2]: 10 to 100 µM
